Data on ten compounds can be found in paper PMC4392110, “Atom-Atom-Path similarity and Sphere Exclusion clustering: tools for prioritizing fragment hits” (Journal of Cheminformatics, 2015).

In the experiment the target is MAP4K4 kinase (Homo sapiens, UniProt O95819). Description: MAP4K4 fragment screen, KD of fragment hits. The note with it: for Ligand Efficiency: LE computed as 1.4*pKd/nHeavyAtoms; for Kd: fragment screening hits, read-out: MAP4K4 inact KD; for LE difference to the cluster seed: difference in LE to cluster seed (C02M01 or C12M01). The format is binding. An excerpt: Utilizing additional fragment collections, we expanded our previous ~2,500 compound screen of the MAP4K4 kinase by performing an additional screen of 8,000 compounds [28]. […] AAP similarity and DISE clustering were used to cluster the combined hit set fragments. The fragment hits were sorted according to their LE, followed by the cluster seed selection. The AAP similarity threshold in this step was 0.3. The remaining hits were assigned to the most similar cluster seed.
Sequence of MAP4K4 kinase (O95819 whole entry, the tested form may be a part): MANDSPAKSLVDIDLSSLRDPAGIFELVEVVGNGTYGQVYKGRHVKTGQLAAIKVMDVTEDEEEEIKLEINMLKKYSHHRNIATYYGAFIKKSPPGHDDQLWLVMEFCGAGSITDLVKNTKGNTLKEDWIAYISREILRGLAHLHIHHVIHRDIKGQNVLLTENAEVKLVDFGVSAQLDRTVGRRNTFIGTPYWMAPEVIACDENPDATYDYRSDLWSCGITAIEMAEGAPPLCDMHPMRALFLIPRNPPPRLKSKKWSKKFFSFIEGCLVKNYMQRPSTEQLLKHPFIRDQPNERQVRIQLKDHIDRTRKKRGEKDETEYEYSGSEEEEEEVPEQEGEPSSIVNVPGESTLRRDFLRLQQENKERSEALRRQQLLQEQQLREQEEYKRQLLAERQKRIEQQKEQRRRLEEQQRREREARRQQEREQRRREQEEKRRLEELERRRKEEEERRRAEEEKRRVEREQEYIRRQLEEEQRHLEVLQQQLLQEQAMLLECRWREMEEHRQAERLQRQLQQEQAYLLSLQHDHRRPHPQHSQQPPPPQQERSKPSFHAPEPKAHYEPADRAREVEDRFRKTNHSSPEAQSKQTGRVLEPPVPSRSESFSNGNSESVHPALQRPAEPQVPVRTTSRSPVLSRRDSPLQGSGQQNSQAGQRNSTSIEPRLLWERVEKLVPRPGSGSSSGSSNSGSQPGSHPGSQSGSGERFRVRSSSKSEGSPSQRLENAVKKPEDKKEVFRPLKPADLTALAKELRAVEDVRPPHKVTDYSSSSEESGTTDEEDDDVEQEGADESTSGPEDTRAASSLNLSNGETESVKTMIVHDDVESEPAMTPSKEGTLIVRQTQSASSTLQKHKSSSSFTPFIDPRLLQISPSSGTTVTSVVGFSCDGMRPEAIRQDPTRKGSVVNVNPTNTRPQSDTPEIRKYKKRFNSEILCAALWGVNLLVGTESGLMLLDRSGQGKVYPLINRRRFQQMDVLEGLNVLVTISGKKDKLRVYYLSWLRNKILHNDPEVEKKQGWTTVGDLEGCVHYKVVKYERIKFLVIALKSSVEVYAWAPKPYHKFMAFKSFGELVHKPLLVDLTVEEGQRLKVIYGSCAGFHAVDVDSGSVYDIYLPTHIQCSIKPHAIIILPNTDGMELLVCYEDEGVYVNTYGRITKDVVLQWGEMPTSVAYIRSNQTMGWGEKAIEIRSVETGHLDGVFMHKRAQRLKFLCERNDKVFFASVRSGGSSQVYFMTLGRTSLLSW

By Kd is commonly meant the equilibrium constant for the complex coming apart. Take `Nc1c(-c2ccccc2)nn2ccccc12` [C12M05]: the “Ligand Efficiency” value came to 0.31 and the Kd was 276 µM.

Regarding `Nc1n[nH]c2cc(-c3ccccc3)ccc12` [C12M02], the “Ligand Efficiency” value is given as 0.49 and the Kd was found to be 2.1 µM.

Regarding `CCc1nc(N)nc(N)c1-c1ccc(Cl)cc1` [C02M06], the equilibrium dissociation constant (Kd) turned out to be 930 µM.

`Nc1ccc2[nH]nc(-c3ccccc3)c2c1` [C12M03]: the “Ligand Efficiency” value worked out at 0.41, the “LE difference to the cluster seed” value is 0.09 and the dissociation constant Kd stood at 16.8 µM.

In the case of `OCc1ccc(-c2cncnc2)cc1` [C02M05], the equilibrium dissociation constant (Kd) turned out to be 505 µM.

On to `c1ccc(-c2n[nH]c3ccccc23)cc1` [C12M01], for which the “Ligand Efficiency” value is on record as 0.5 and the Kd was 3.4 µM.

As to `Nc1ncncc1-c1ccc(Cl)cc1` [C02M03], the “LE difference to the cluster seed” value turned out to be 0.17 and the equilibrium dissociation constant (Kd) was 35.5 µM.

On to `Nc1ncncc1-c1ccc(O)cc1` [C02M01], for which the dissociation constant Kd was 0.55 µM.

Regarding `Nc1ncnc(Cl)c1-c1ccccc1` [C02M04], the dissociation constant (Kd) came out at 367 µM.

On to `Nc1ncncc1-c1ccccc1` [C02M02], for which the “LE difference to the cluster seed” value was found to be 0.13 and the dissociation constant Kd amounted to 28 µM.
